{"source": "paper PMC8341946", "about": "“Wheat pathogen Zymoseptoria tritici N-myristoyltransferase inhibitors: on-target antifungal activity and an unusual metabolic defense mechanism” (RSC Chemical Biology, 2020)", "key": {"Z. tritici culture": {"test_system": "Z. tritici culture", "assay": "Z. tritici culture viability after 4 h treatment (microscope)", "assay_type": "cell-based, Zymoseptoria tritici", "details": "4 h treatment, logarithmic growth phase"}, "Z. tritici": {"test_system": "Z. tritici", "assay": "Anti-proliferative EC50 assay (MTS viability)", "assay_type": "cell-based, Zymoseptoria tritici", "details": "Fig. 1B, Z. tritici cell viability, MTS, 40 h"}, "[1]": {"test_system": "Z. tritici whole proteome", "assay": "TMT-based proteomics of the whole lysate after NMT inhibition", "assay_type": "cell-based, Zymoseptoria tritici", "details": "8-64 μM, 4 h", "method": "These changes reflect the acute response mounted by the fungus in response to compound and are relatively substantial considering that they occur following only 4 hours of inhibitor treatment. Limited annotation of Z. tritici genes[43] prompted us to undertake an in-depth analysis using NCBI BLAST+[39] to find closest homologs in S. cerevisiae, one of the most well-annotated yeast genomes available. We performed the search filtering out poor alignment matches (e-value > 0.01) and selected a single best match in the S. cerevisiae proteome for each Z. tritici protein.\nFig. 3 Response of Z. tritici to treatment with NMT inhibitors. […] Data is normalized by subtraction of the row mean values. (B) GO biological process and KEGG term enrichments using Fisher's exact test applied to proteins in Cluster W. (C) GO biological process term enrichments from Fisher's exact test applied to proteins in Cluster Z. GO annotation were assigned to Z. tritici proteins based on S. cerevisiae homolog (BLAST analysis) terms.\n0.8 mg of each of the TMTsixplex™ Isobaric labels was dissolved in 41 μl anhydrous acetonitrile and then 8 μl of the solution of a reagent was added to 30 μl of corresponding peptide solution to start the labelling reaction. The solution was stirred at room temperature for 1.5 h. […]"}, "HsNMT1 [2]": {"test_system": "HsNMT1", "details": "Table S1; ref SI refs 1-7 as given with each inhibitor name; cited from earlier work"}, "[3]": {"test_system": "Z. tritici myristoylated proteome", "assay": "TMT-based proteomics of myristate enriched proteins after NMT inhibition", "assay_type": "cell-based, Zymoseptoria tritici"}, "[4]": {"test_system": "NMT activity in live Z. tritici", "assay": "YnMyr tagging in live Z. tritici, in-gel fluorescence", "method": "Fig. 2 Inhibition and assessment of myristoylation in vivo. (A) Generalized workflow for identification and quantification of myristoylated proteins. Cells were treated with YnMyr in culture, and cell lysates ligated to multifunctional reagents bearing a TAMRA dye for fluorescent in-gel imaging and/or biotin for affinity enrichment and analysis by proteomics.\nYnMyr was used to measure the effect of inhibitor on NMT activity in live Z. tritici."}, "HsNMT1 [5]": {"molecular_target": "HsNMT1", "set-up": "method as in PMID 29760414", "details": "estimated; cited from earlier work"}, "ZtNMTΔ99": {"molecular_target": "ZtNMTΔ99 (Zymoseptoria tritici, UniProt F9XBB7)", "sequence (F9XBB7 entry or part of it, stated change not applied)": "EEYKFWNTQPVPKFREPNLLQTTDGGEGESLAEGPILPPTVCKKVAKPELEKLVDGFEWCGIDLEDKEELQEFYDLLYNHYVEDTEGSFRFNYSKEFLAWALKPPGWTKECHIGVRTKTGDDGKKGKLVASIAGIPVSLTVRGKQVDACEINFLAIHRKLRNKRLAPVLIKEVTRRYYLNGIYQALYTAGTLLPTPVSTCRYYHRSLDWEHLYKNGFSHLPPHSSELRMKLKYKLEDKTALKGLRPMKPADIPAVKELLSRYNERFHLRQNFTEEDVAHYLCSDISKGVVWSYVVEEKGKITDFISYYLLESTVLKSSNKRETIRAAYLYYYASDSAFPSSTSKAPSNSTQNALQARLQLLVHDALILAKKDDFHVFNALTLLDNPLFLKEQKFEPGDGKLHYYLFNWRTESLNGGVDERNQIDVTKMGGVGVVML", "assay": "ZtNMT IC50 assay (CPM, enzymatic)", "assay_type": "biochemical", "excerpt": "As the peptide substrate we used an octapeptide derived from the N-terminus of F9X1I2 (Z. tritici predicted homolog of ADP-ribosylation factor 1, ARF1), which we hypothesized would be natively myristoylated in vivo.\nFig. 1 ZtNMT enzymatic activity and structure. […] The CPM reagent enables fluorogenic readout of the reaction rate based on the generation of coenzyme A thiol. […] (D) ZtNMT homology model generated using Swiss Model[26] based on a reported A. fumigatus NMT X-Ray structure 4UWI[27] was aligned to HsNMT1 (PDB: 5MU6, in transparent grey). […] (E) A map of ligand interactions between docked IMP-1088 and its induced fit generated ZtNMT receptor protein residues.\nThe assay was adapted from a previous publication.[25] […] Accumulation of fluorescence signal at 470 nm was measured at one-minute intervals during the first 20 minutes of the reaction. Rates of the enzymatic reaction were calculated from the linear range of the resulting fluorescence over time curve using GraphPad Prizm 5. Then, sigmoidal dose–response (variable curve) fitting was applied to the data to obtain IC50 values. The assay was performed with at least 2 replicates, mean and confidence intervals are reported."}}, "note": "Entries after “also recorded” stand apart in the source; their conditions may differ.", "data": [{"smiles": "Cc1nn(C)c(C)c1CCOc1c(-c2ccc3c(c2)c(CN(C)C)nn3C)ccc(F)c1F", "note": "[IMP-1088]", "values": [{"measurement": "effect on cell viability", "setting": "Z. tritici culture", "result": "no detectable effect on cell viability"}, {"measurement": "EC50", "setting": "Z. tritici", "result": 23, "unit": "µM"}, {"measurement": "EC50", "setting": "Z. tritici; Zymoseptoria tritici", "result": "~20", "unit": "µM"}, {"measurement": "whole proteome response", "setting": "[1]", "result": "significant dose-dependent changes in the expression of multiple proteins"}, {"measurement": "IC50", "setting": "HsNMT1 [2]", "result": "< 0.001", "unit": "µM"}, {"measurement": "YnMyr tagging of myristoylated proteins", "setting": "[3]; 64 μM versus DMSO, 4 h", "result": "reduced tagging"}, {"measurement": "TC50 (concentration of half-tagging with YnMyr)", "setting": "[3]; first subset of myristoylated proteins in Cluster 1", "result": "8 to 16", "unit": "µM"}, {"measurement": "TC50 (concentration of half-tagging with YnMyr)", "setting": "[3]; second subset of myristoylated proteins in Cluster 1", "result": "16 to 32", "unit": "µM"}, {"measurement": "TC50 (concentration of half-tagging with YnMyr)", "setting": "[3]; third subset of myristoylated proteins in Cluster 1", "result": "32 to 64", "unit": "µM"}, {"measurement": "TC50 (half maximal concentration of YnMyr tagging)", "setting": "[4]; 4 h, intensity of most prominent band (ca. 20 kDa), in-gel fluorescence", "result": "14 ± 1", "unit": "µM"}, {"measurement": "effect on YnMyr labeling (in-gel band intensities)", "setting": "[4]; 4 h with compound and YnMyr, TAMRA fluorescence", "result": "dose-dependently reduces labeling; also recorded: reduced YnMyr tagging"}, {"measurement": "Kd", "setting": "HsNMT1 [5]", "result": "< 0.0002", "unit": "µM"}, {"measurement": "IC50", "setting": "ZtNMTΔ99", "result": 0.012, "unit": "µM"}]}]}
